From ChEMBL document CHEMBL5303573, “Mapping human microbiome drug metabolism by gut bacteria and their genes” (Nature, 2019)

Experiments:
[1] = parabacteroides distasonis, 12 h, 2 µM
Description: The drug is tested on Parabacteroides distasonis strain: ATCC8503 for biotransformation. The drug concentrations were measured before and after a 12-h incubation by liquid-chromatography-coupled mass spectrometry (LC–MS)

[2] = The drug is tested on Subdoligranulum variabile strain: DSM15176 for biotransformation. The drug concentrations were measured before and after a 12-h incubation by liquid-chromatography-coupled mass spectrometry (LC–MS); conditions: 2 µM
[3] = The drug is tested on Escherichia coli strain: BW25113 for biotransformation. The drug concentrations were measured before and after a 12-h incubation by liquid-chromatography-coupled mass spectrometry (LC–MS); conditions: 2 µM
[4] = The drug is tested on Bacteroides fragilis strain: ATCC43859 for biotransformation. The drug concentrations were measured before and after a 12-h incubation by liquid-chromatography-coupled mass spectrometry (LC–MS); conditions: 2 µM
[5] = The drug is tested on Bacteroides xylanisolvens strain: DSM18836 for biotransformation. The drug concentrations were measured before and after a 12-h incubation by liquid-chromatography-coupled mass spectrometry (LC–MS); conditions: 2 µM
[6] = The drug is tested on Providencia stuartii strain: ATCC25827 for biotransformation. The drug concentrations were measured before and after a 12-h incubation by liquid-chromatography-coupled mass spectrometry (LC–MS); conditions: 2 µM
[7] = The drug is tested on Clostridium symbiosum strain: ATCC14940 for biotransformation. The drug concentrations were measured before and after a 12-h incubation by liquid-chromatography-coupled mass spectrometry (LC–MS); conditions: 2 µM
[8] = The drug is tested on Bacteroides ovatus strain: ATCC8483 for biotransformation. The drug concentrations were measured before and after a 12-h incubation by liquid-chromatography-coupled mass spectrometry (LC–MS); conditions: 2 µM
[9] = The drug is tested on Parabacteroides merdae strain: ATCC43184 for biotransformation. The drug concentrations were measured before and after a 12-h incubation by liquid-chromatography-coupled mass spectrometry (LC–MS); conditions: 2 µM
[10] = bacteroides thetaiotaomicron, 12 h, 2 µM
Description: The drug is tested on Bacteroides thetaiotaomicron strain: VPI-5482 for biotransformation. The drug concentrations were measured before and after a 12-h incubation by liquid-chromatography-coupled mass spectrometry (LC–MS)

[11] = The drug is tested on Providencia rettgeri strain: DSM1131 for biotransformation. The drug concentrations were measured before and after a 12-h incubation by liquid-chromatography-coupled mass spectrometry (LC–MS); type: ADME; set-up: dose 2 uM, timepoint 0 vs 12 hours; conditions: 2 µM
[12] = The drug is tested on Eubacterium hallii strain: DSM3353 for biotransformation. The drug concentrations were measured before and after a 12-h incubation by liquid-chromatography-coupled mass spectrometry (LC–MS); conditions: anaerobutyricum hallii, 2 µM
[13] = segatella copri, 12 h, 2 µM
Description: The drug is tested on Prevotella copri strain: DSM18205 for biotransformation. The drug concentrations were measured before and after a 12-h incubation by liquid-chromatography-coupled mass spectrometry (LC–MS)

[14] = The drug is tested on Bacteroides pectinophilus strain: ATCC43243 for biotransformation. The drug concentrations were measured before and after a 12-h incubation by liquid-chromatography-coupled mass spectrometry (LC–MS); conditions: 2 µM
[15] = The drug is tested on Bacteroides dorei strain: DSM17855 for biotransformation. The drug concentrations were measured before and after a 12-h incubation by liquid-chromatography-coupled mass spectrometry (LC–MS); conditions: phocaeicola dorei, 2 µM
[16] = The drug is tested on Blautia hansenii strain: DSM20583 for biotransformation. The drug concentrations were measured before and after a 12-h incubation by liquid-chromatography-coupled mass spectrometry (LC–MS); conditions: 2 µM
[17] = The drug is tested on Ruminococcus lactaris strain: ATCC29176 for biotransformation. The drug concentrations were measured before and after a 12-h incubation by liquid-chromatography-coupled mass spectrometry (LC–MS); conditions: 2 µM
[18] = The drug is tested on Clostridium sporogenes strain: ATCC15579 for biotransformation. The drug concentrations were measured before and after a 12-h incubation by liquid-chromatography-coupled mass spectrometry (LC–MS); conditions: 2 µM
[19] = The drug is tested on Ruminococcus torques strain: ATCC27756 for biotransformation. The drug concentrations were measured before and after a 12-h incubation by liquid-chromatography-coupled mass spectrometry (LC–MS); type: ADME; set-up: dose 2 uM, timepoint 0 vs 12 hours; conditions: 2 µM
[20] = akkermansia muciniphila, 12 h, 2 µM
Description: The drug is tested on Akkermansia muciniphila strain: ATCC BAA-835 for biotransformation. The drug concentrations were measured before and after a 12-h incubation by liquid-chromatography-coupled mass spectrometry (LC–MS)

SMILES	Bacterial Biotransformation [1]	Bacterial Biotransformation [2]	Bacterial Biotransformation [3]	Bacterial Biotransformation [4]	Bacterial Biotransformation [5]	Bacterial Biotransformation [6]	Bacterial Biotransformation [7]	Bacterial Biotransformation [8]	Bacterial Biotransformation [9]	Bacterial Biotransformation [10]	Bacterial Biotransformation [11]	Bacterial Biotransformation [12]	Bacterial Biotransformation [13]	Bacterial Biotransformation [14]	Bacterial Biotransformation [15]	Bacterial Biotransformation [16]	Bacterial Biotransformation [17]	Bacterial Biotransformation [18]	Bacterial Biotransformation [19]	Bacterial Biotransformation [20]
OC(c1cc(C(F)(F)F)nc2c(C(F)(F)F)cccc12)C1CCCCN1 (stereo unspecified) [MEFLOQUINE]	Compound NOT metabolized	Compound NOT metabolized	Compound metabolized	Compound NOT metabolized	Compound NOT metabolized	Compound NOT metabolized	Compound NOT metabolized	Compound NOT metabolized	Compound NOT metabolized	Compound NOT metabolized	Compound NOT metabolized	Compound NOT metabolized	Compound NOT metabolized	Compound NOT metabolized	Compound NOT metabolized					
CCCCC(=O)O[C@]1(C(=O)CO)[C@@H](C)C[C@H]2[C@@H]3CCC4=CC(=O)C=C[C@]4(C)[C@@]3(F)[C@@H](O)C[C@@]21C [BETAMETHASONE VALERATE]	Compound metabolized	Compound metabolized	Compound metabolized		Compound metabolized	Compound NOT metabolized	Compound NOT metabolized	Compound NOT metabolized		Compound NOT metabolized	Compound NOT metabolized		Compound NOT metabolized	Compound NOT metabolized	Compound metabolized	Compound metabolized	Compound NOT metabolized			
CN(C)C(=O)C(CCN1CCC(O)(c2ccc(Cl)cc2)CC1)(c1ccccc1)c1ccccc1 [LOPERAMIDE]	Compound metabolized	Compound NOT metabolized	Compound metabolized		Compound metabolized	Compound NOT metabolized	Compound NOT metabolized			Compound NOT metabolized	Compound metabolized	Compound NOT metabolized		Compound NOT metabolized	Compound metabolized	Compound metabolized	Compound NOT metabolized	Compound metabolized	Compound NOT metabolized	
Cc1ccc(/C(=C\CN2CCCC2)c2ccccn2)cc1 [TRIPROLIDINE]	Compound NOT metabolized	Compound NOT metabolized		Compound NOT metabolized	Compound NOT metabolized	Compound NOT metabolized	Compound NOT metabolized	Compound NOT metabolized	Compound NOT metabolized	Compound NOT metabolized	Compound NOT metabolized	Compound NOT metabolized	Compound NOT metabolized	Compound NOT metabolized	Compound NOT metabolized		Compound NOT metabolized	Compound NOT metabolized	Compound NOT metabolized	Compound NOT metabolized
O=C(O[C@H]1C[C@H]2CC[C@@H](C1)[N+]21CCCC1)C(O)(c1ccccc1)c1ccccc1.[Cl-] [TROSPIUM CHLORIDE]	Compound NOT metabolized	Compound NOT metabolized	Compound NOT metabolized		Compound NOT metabolized	Compound NOT metabolized	Compound NOT metabolized	Compound NOT metabolized	Compound NOT metabolized	Compound NOT metabolized	Compound NOT metabolized	Compound NOT metabolized	Compound NOT metabolized		Compound NOT metabolized		Compound NOT metabolized	Compound NOT metabolized	Compound NOT metabolized	Compound NOT metabolized
CC(=O)O[C@H]1C(=O)[C@@]2(C)[C@H]([C@H](OC(=O)c3ccccc3)[C@]3(O)C[C@H](OC(=O)[C@H](O)[C@@H](NC(=O)c4ccccc4)c4ccccc4)C(C)=C1C3(C)C)[C@]1(OC(C)=O)CO[C@@H]1C[C@@H]2O [PACLITAXEL]	Compound NOT metabolized	Compound NOT metabolized	Compound NOT metabolized	Compound NOT metabolized	Compound metabolized	Compound NOT metabolized	Compound NOT metabolized		Compound NOT metabolized	Compound NOT metabolized		Compound NOT metabolized	Compound NOT metabolized	Compound NOT metabolized				Compound NOT metabolized	Compound NOT metabolized	Compound NOT metabolized
O=C(NC(Cc1cc(=O)[nH]c2ccccc12)C(=O)O)c1ccc(Cl)cc1 (stereo unspecified) [REBAMIPIDE]	Compound NOT metabolized	Compound NOT metabolized			Compound metabolized	Compound NOT metabolized	Compound NOT metabolized	Compound NOT metabolized	Compound NOT metabolized	Compound NOT metabolized	Compound NOT metabolized	Compound NOT metabolized	Compound NOT metabolized	Compound NOT metabolized	Compound metabolized	Compound NOT metabolized	Compound NOT metabolized		Compound NOT metabolized	Compound NOT metabolized
COC(=O)C(c1ccccc1)C1CCCCN1 (stereo unspecified) [METHYLPHENIDATE]		Compound NOT metabolized	Compound metabolized	Compound NOT metabolized	Compound NOT metabolized	Compound NOT metabolized		Compound NOT metabolized		Compound NOT metabolized		Compound NOT metabolized		Compound NOT metabolized	Compound NOT metabolized	Compound metabolized	Compound NOT metabolized	Compound metabolized	Compound NOT metabolized	Compound NOT metabolized
